The subject of test [1] is BaF3/TPR-Met cell. In words: Test III: growth inhibition of engineered BaF3/TPR-Met cells (MTT). Type of test: cell-based. To be noted: Mus musculus; for inhibition at 0.2 µM: read-out: Cell proliferation inhibition rate at 200 nM (%); for inhibition at 1 µM: read-out: Cell proliferation inhibition rate at 1 μM (%). The protocol:
Assays on the growth inhibition of the compounds against engineered BaF3/TPR-Met cell (engineered cell line having TPR-Met fusion protein stably expressed in cytoplasm, persistently activated, Met dependent sensitive cell line; BaF3 cell was purchased from DSMZ, German) were detected using microculture tetrozolium (MTT) staining. A certain amount of BaF3/TPR-Met cells at log phase were inoculated into 96-well culture plate at 90 µL per well, incubated overnight and then 10 μL compound at various concentrations or vehicle control (normal saline) was added, each concentration was tested in triplicate. After incubation with compound for 72 hours, the incubation was terminated, MTT solution (5 mg/mL) was added at 20 μL per well, incubated at 37° C. for 4 hours, then 100 μL triplet solution (10% SDS−5% isobutanol−0.01M HCl) was added, incubated overnight at 37° C., OD value was measured at 570 nm. […] Experiments were conducted in duplicates.

For test [2], the target named is T1, c-Met kinase domain recombinant protein (Homo sapiens, UniProt P08581).
T1 construct: 50 μL diluted solution of c-Met kinase domain recombinant protein in reaction buffer was added to initiate the reaction
In words: biochemical. To be noted: for inhibition at 0.1 µM: read-out: Average inhibition rate at 0.1 μM (%); for inhibition at 1 µM: read-out: Average inhibition rate at 1 μM (%); for inhibition at 10 µM: read-out: Average inhibition rate at 10 μM (%). In a few lines: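 ELISA on plates coated with Poly(Glu,Tyr)4:1 (20 μg/mL coating solution). Recombinant c-Met kinase domain reacted with 5 μM ATP in HEPES pH 7.4 with Mg/Mn, vanadate and DTT for 1 hour at 37° C. Phosphotyrosine was detected with PY99 and HRP secondary antibody, read at 490 nm, and IC50 was taken from a four-parameter fit.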

The target in test [3] is T1, c-Met kinase domain recombinant protein. In words: biochemical. To be noted: read-out: Inhibition rate at 10 μM (%). In a few lines: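 ELISA on plates coated with Poly(Glu,Tyr)4:1 (20 μg/mL), kinase reaction with c-Met kinase domain and ATP in HEPES pH 7.4 buffer with MgCl2, MnCl2, Na3VO4 and DTT, 1 h at 37 °C. Phosphotyrosine detected with PY99 and HRP secondary antibody, read at 490 nm; inhibition rate calculated against ATP-free control.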

For test [4], the system named is EBC-1 cell. In words: Test III: growth inhibition of non-small cell carcinoma EBC-1 cell (SRB). Format: cell-based. To be noted: Homo sapiens, EBC-1, 72 h; for inhibition at 0.2 µM: read-out: Cell proliferation inhibition rate at 200 nM (%); for inhibition at 1 µM: read-out: Cell proliferation inhibition rate at 1 μM (%). How it is done: Assays on the growth inhibition of the compounds against gastric tumor cell MKN45, non-small cell carcinoma EBC-1 cell (both are MET persistent activated cell lines due to MET gene amplification, and are Met dependent tumor cell lines, MKN45 cell was purchased from JCRB, Japan, EBC-1 cell was purchased from ATCC, USA) were detected using sulforhodamine B (SRB) staining. […] After incubation with compound for 72 hours, the incubation was terminated, adherent cells were retained and medium was discarded, 10% (w/v) trichloroacetic acid (100 μL pre well) was added, the cells were fixed at 4° C. for 1 hour, then rinsed with distilled water for 5 times, after dried at room temperature, SRB solution (4 mg/mL, dissolved in 1% glacial acetic acid) was added at 100 μL per well, incubated and stained at room temperature for 15 minutes, then rinsed with 1% glacial acetic acid for 5 times to remove any unbound SRB, dried at room temperature, then 10 mM Tris solution was added at 100 μL per well, the optical density (OD) value at 515 nm was measured using VERSMax microplate reader.
Experiments were conducted in duplicates. IC50 value was calculated by fitting the data for a four parameter fit using inhibition curve, the results are shown below in Table 2.

As a reminder, the IC50 is the concentration that inhibits the measured activity by half.

Like-named read-outs stand apart in the source and are kept apart here.

T1 sequence (P08581 1078-1345 limits assumed): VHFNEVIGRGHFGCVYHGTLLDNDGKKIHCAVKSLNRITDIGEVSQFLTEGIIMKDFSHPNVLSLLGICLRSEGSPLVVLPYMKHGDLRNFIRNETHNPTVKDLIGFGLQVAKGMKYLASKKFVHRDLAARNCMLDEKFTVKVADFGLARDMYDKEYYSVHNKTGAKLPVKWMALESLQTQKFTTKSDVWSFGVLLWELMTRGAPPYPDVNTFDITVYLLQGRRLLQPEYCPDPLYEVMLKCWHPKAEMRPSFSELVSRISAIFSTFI

In the case of `Cn1cc(-c2cnc3cnn(S(=O)(=O)c4c(Cl)nc5sccn45)c3c2)cn1` [Compound 18], in test [1] (BaF3, 72 h), the inhibition at 0.2 µM was 1.8% and the inhibition at 1 µM worked out at 94.4%. Moreover, in test [2], the IC50 came out at 4.2 ± 0.6 nM, the inhibition at 0.1 µM worked out at 52.2%, the inhibition at 1 µM amounted to 60.5% and the inhibition at 10 µM came to 64%. The inhibition at 10 µM in test [3] stood at 64%.

Regarding `Cn1cc(-c2cnc3cnn(S(=O)(=O)c4cccc5nonc45)c3c2)cn1` [Compound 20, 1-(benzo[1,2,5]oxadiazole-4-sulfonyl)-6-[(1-methyl)-4-pyrazolyl]-1-H-pyrazolo[4,3-b]pyridine], in test [1] (BaF3, 72 h), the inhibition at 0.2 µM was found to be 3.2% and the inhibition at 1 µM worked out at 2.9%. In addition, in test [2], the concentration for half-maximal inhibition (IC50) was determined as 316 ± 141 nM, the inhibition at 0.1 µM amounted to 54.9%, the inhibition at 1 µM turned out to be 72.6% and the inhibition at 10 µM was 85.7%. Besides, the inhibition at 10 µM in test [3] is 85.7%.

With `Cn1cc(-c2cnc3cnn(S(=O)(=O)c4cnc5cccnn45)c3c2)cn1` [Example 21, 1-(imidazo[1,2-b]pyridazine-3-sulfonyl)-6-[(1-methyl)-4-pyrazolyl]-1-H-pyrazolo[4,3-b]pyridine], the inhibition at 1 µM in test [1] (BaF3/TPR-Met, 1 μM, 72 hours) came to 42.7%. In addition, in test [2], the inhibition at 0.1 µM was found to be 59%, the inhibition at 1 µM is 59.7% and the inhibition at 10 µM stood at 77.9%. For the same compound, in test [3], the inhibition at 10 µM amounted to 77.9%.

In the case of `Cn1cc(-c2cnc3cnn(S(=O)(=O)c4cnc5ccc(Cl)cn45)c3c2)cn1` [Example 24, 1-[(6-chloro-imidazo[1,2-a]pyridine)-3-sulfonyl]-6-[(1-methyl)-4-pyrazolyl]-1-H-pyrazolo[4,3-b]pyridine], in test [1] (BaF3, 72 h), the inhibition at 0.2 µM is 65.9% and the inhibition at 1 µM came to 90.9%. Besides, in test [2], the concentration for half-maximal inhibition (IC50) turned out to be 2.5 ± 1.2 nM, the inhibition at 0.1 µM was found to be 62.9%, the inhibition at 1 µM was determined as 67.8% and the inhibition at 10 µM is 70.5%. Also, the inhibition at 10 µM in test [3] was 70.5%.

Consider `Cn1cc(-c2cnc3cnn(S(=O)(=O)c4cnc5ccc(Cl)nn45)c3c2)cn1` [Example 25, 1-[(6-chloro-imidazo[1,2-b]pyridazine)-3-sulfonyl]-6-[(1-methyl)-4-pyrazolyl]-1-H-pyrazolo[4,3-b]pyridine], for which, in test [1] (BaF3, 72 h), the inhibition at 0.2 µM was 36.3% and the inhibition at 1 µM is 88.4%. In test [2], the IC50 is 21.3 ± 2.3 nM, the inhibition at 0.1 µM was determined as 71.7%, the inhibition at 1 µM was found to be 78% and the inhibition at 10 µM was determined as 86.2%. Moreover, the inhibition at 10 µM in test [3] came out at 86.2%.

On to `O=S(=O)(c1cnc2ccccn12)n1ncc2ncc(-c3ccccc3)cc21` [Example 28, 1-(imidazo[1,2-a]pyridine-3-sulfonyl)-6-phenyl-1-H-pyrazolo[4,3-b]pyridine], for which the inhibition at 1 µM in test [1] (BaF3, 72 h) came out at 66.1%. In test [2], the IC50 turned out to be 6.7 ± 0.5 nM, the inhibition at 0.1 µM turned out to be 64.6%, the inhibition at 1 µM turned out to be 70.3% and the inhibition at 10 µM was 70.6%. Further, in test [3], the inhibition at 10 µM amounted to 70.6%.

`Cn1cc(-c2ccc3ncc(S(=O)(=O)n4ncc5ncc(-c6cnn(C7CCN(C8CCCC8)CC7)c6)cc54)n3c2)cn1` [Example 136, 1-{(6-[(1-methyl)-4-pyrazolyl]-imidazo[1,2-a]pyridine)-3-sulfonyl}-6-{{1-[(1-cyclopentyl)-4-piperidinyl]}-4-pyrazolyl}-1-H-pyrazolo[4,3-b]pyridine]: in test [4], the inhibition at 0.2 µM is 91.4% and the inhibition at 1 µM is 92.4%. Besides, in test [2], the IC50 was determined as 1.2 ± 0.1 nM, the inhibition at 0.1 µM came to 90.2% and the inhibition at 1 µM came out at 91.3%.

On to `CC(C)N1CC=C(c2cnc3cnn(S(=O)(=O)c4cnc5ccc(-c6cnn(C)c6)cn45)c3c2)CC1` [Example 137, 1-{(6-[(1-methyl)-4-pyrazolyl]-imidazo[1,2-a]pyridine)-3-sulfonyl}-6-[(1-isopropyl)-4-(1,2,3,6-tetrahydropyridinyl)]-1-H-pyrazolo[4,3-b]pyridine], for which, in test [4], the inhibition at 0.2 µM was 73% and the inhibition at 1 µM worked out at 92.4%. In test [2], the half-maximal inhibitory concentration (IC50) worked out at 1.3 ± 0.1 nM, the inhibition at 0.1 µM worked out at 91.6% and the inhibition at 1 µM stood at 89.9%.

As for `CCN1CCC(n2cc(-c3cnc4cnn(S(=O)(=O)c5cnc6ccc(-c7cnn(C)c7)cn56)c4c3)cn2)CC1` [Example 138, 1-{(6-[(1-methyl)-4-pyrazolyl]-imidazo[1,2-a]pyridine)-3-sulfonyl}-6-{{1-[(1-ethyl)-4-piperidinyl]}-4-pyrazolyl}-1-H-pyrazolo[4,3-b]pyridine], in test [4], the inhibition at 0.2 µM was 90.9% and the inhibition at 1 µM was found to be 92.9%. Besides, in test [2], the IC50 came to 0.6 ± 0.01 nM, the inhibition at 0.1 µM amounted to 87.7% and the inhibition at 1 µM came to 90.5%.

With `Cn1cc(-c2ccc3ncc(S(=O)(=O)n4ncc5ncc(C6=CCNCC6)cc54)n3c2)cn1` [Example 139, 1-{(6-[(1-methyl)-4-pyrazolyl]-imidazo[1,2-a]pyridine)-3-sulfonyl}-6-[4-(1,2,3,6-tetrahydropyridinyl)]-1-H-pyrazolo[4,3-b]pyridine], in test [4], the inhibition at 0.2 µM is 90.7% and the inhibition at 1 µM amounted to 91.6%. For the same compound, in test [2], the IC50 stood at 1 ± 0.1 nM, the inhibition at 0.1 µM was 90.3% and the inhibition at 1 µM came out at 88.9%.

On to `Cn1cc(-c2ccc3ncc(S(=O)(=O)n4ncc5ncc(-c6cnn(C7CCNCC7)c6)cc54)n3c2)cn1` [Example 140, 1-{(6-[(1-methyl)-4-pyrazolyl]-imidazo[1,2-a]pyridine)-3-sulfonyl}-6-{[1-(4-piperidinyl)]-4-pyrazolyl}-1-H-pyrazolo[4,3-b]pyridine], for which, in test [4], the inhibition at 0.2 µM came to 91.4% and the inhibition at 1 µM is 92%. In test [2], the IC50 is 0.5 ± 0.03 nM, the inhibition at 0.1 µM is 92.4% and the inhibition at 1 µM came out at 89.5%.

On to `Cn1cc(-c2ccc3ncc(S(=O)(=O)n4ncc5ncc(-c6cnn(C7CCN(C(=O)OC(C)(C)C)CC7)c6)cc54)n3c2)cn1` [Example 141, 1-{(6-[(1-methyl)-4-pyrazolyl]-imidazo[1,2-a]pyridine)-3-sulfonyl}-6-{{1-[(1-t-butoxycarbonyl)-4-piperidinyl]}-4-pyrazolyl}-1-H-pyrazolo[4,3-b]pyridine], for which, in test [4], the inhibition at 0.2 µM stood at 92.6% and the inhibition at 1 µM is 92.7%. In test [2], the IC50 is 0.3 ± 0.1 nM, the inhibition at 0.1 µM stood at 86.3% and the inhibition at 1 µM is 88.5%.

Turning to `Cn1cc(-c2ccc3ncc(S(=O)(=O)n4ncc5ncc(-c6ccc(CN7CCOCC7)cc6)cc54)n3c2)cn1` [Example 143, 1-{(6-[(1-methyl)-4-pyrazolyl]-imidazo[1,2-a]pyridine)-3-sulfonyl}-6-(4-morpholinomethylphenyl)-1-H-pyrazolo[4,3-b]pyridine], in test [4], the inhibition at 0.2 µM is 92.3% and the inhibition at 1 µM was 92.5%. Further, in test [2], the IC50 is 0.4 ± 0.1 nM, the inhibition at 0.1 µM stood at 90% and the inhibition at 1 µM was determined as 92.1%.

For the compound `Cn1cc(-c2ccc3ncc(S(=O)(=O)n4ncc5ncc(-c6ccccc6)cc54)n3c2)cn1` [Example 144, 1-{(6-[(1-methyl)-4-pyrazolyl]-imidazo[1,2-a]pyridine)-3-sulfonyl}-6-phenyl-1-H-pyrazolo[4,3-b]pyridine], in test [4], the inhibition at 0.2 µM was found to be 91.1% and the inhibition at 1 µM stood at 91.4%. Further, in test [2], the IC50 was 0.3 ± 0.01 nM, the inhibition at 0.1 µM was found to be 92.1% and the inhibition at 1 µM was found to be 93.1%.

Source of the values: patent US9988381B2, “Five-member-heterocycle fused pyridine compounds, method of producing the same, and use thereof” (SHANGHAI INSTITUTE OF MATERIA MEDICA, CHINESE ACADEMY OF …, priority 2013, dated 2018).
